Values of other authors in EP3372227A1, “TABLET FORMULATION OF ADEFOVIR DIPIVOXIL” (MH10 Spolka z ograniczona odpowiedzialnoscia, priority 2017, dated 2018).

Settings: rat, in vivo

Nc1ncnc2c1ncn2CCOCP(=O)(O)O [adefovir]
relative oral bioavailability: 7.8
